Test results reported in patent US20150216182A1, “COMPOSITIONS AND METHODS OF THE ATTRACTION AND REPULSION OF INSECTS” (Olfactor Laboratories, Inc., priority 2012, published 2015).
Where a name gives a salt, the structure may show the parent alone. Read-outs that look alike come from different tables or passages of the source.

Assays:
cpB and cpC neurons = experiment: extracellular single-sensillum electrophysiology: beta activators; type: in vivo, Aedes aegypti; details: for Class A (beta activator, individual component): Table 15, single component alone; for Class A (beta activator, individual component) / Class (beta activator, individual component): Beta Actv; for beta activator (stimulates cpB and cpC neuronal activity): single compound
Description: Three types of CO2-responsive neurons reside in the maxillary palp of mosquitoes. These include cpA, cpB and cpC neurons. […] These neurons produce spikes with much lower amplitude than those produced by cpA neurons. Although the activity from cpB and cpC neurons cannot easily be distinguished from one another, their collective activity can be distinguished from cpA neurons due to their characteristic spikes. This is useful in the identification of compounds and compositions that only activate or inhibit cpB and cpC neurons or compounds and compositions that activate or inhibit both.
Carbon dioxide receptor neurons are housed within the basiconic sensilla of the mosquito maxillary palp. While activity from cpA neurons produces the largest amplitude spike, cpB and cpC neurons present in this region are also responsive to skin odors. Activity from these neurons can also be detected through the electrophysiological methods described in Example 1.
Although the activity from cpB and cpC neurons cannot easily be distinguished from one another, their collective activity can be distinguished from cpA neurons due to their production of spikes with much lower amplitude than those produced by cpA neurons.

[1] = tested on: bed bugs (Cimex lectularius); experiment: bed bug repellency assay; type: in vivo; details: compound or combination on filter paper harborage, ten bed bugs
How it was run: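 Ten Cimex lectularius per talc-lined petri dish chose between folded filter-paper harborages treated with isopropyl alcohol alone or compound in isopropyl alcohol […], dried before use. Bugs moved freely 5 min; occupancy beneath each tent recorded, with a solvent-only pairing as control.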

larvae = experiment: larvicidal activity assay; type: in vivo; details: for pest or weed control at 0.25 %: read-out: % Lethality with 0.25% compound conc.; for pest or weed control at 100 ppm: read-out: % Lethality at 100 ppm
Protocol: A 6-well plate (Corning Life Sciences, Tewksbury, Mass.) is used to test a compound's larvicidal activity. […] After a 24 hour exposure, the number of dead larvae are counted and recorded.
The results are presented in Table 17 as % lethality (the number of dead larvae divided by the total number of larvae).

cpA neurons [2] = experiment: extracellular single-sensillum electrophysiology: activation of cpA neuronal activity; details: for Class: Table 6, single compounds, increase over baseline cpA neuronal activity; for Comp B Class: Table 9, component B tested individually
female mosquitoes = experiment: whole plant or invertebrate; details: 2 h; for mortality at 200 µg/mL: read-out: % mortality with 0.2 mg/ml; for mortality at 2000 µg/mL: read-out: % mortality with 2 mg/ml
bed bugs = experiment: bed bug luring assay; type: in vivo; details: cottonball with 100 microliters solution, total 100 mg compound(s), 10 bed bugs, overnight
Protocol: Assays were conducted to measure the ability of compounds and compound combinations to attract bed bugs. A testing arena habitat comprising a small plastic container was placed inside of a larger, secondary container. The top half inch was removed from two bathroom sized solo cups and each cup was placed on opposite sides of the testing arena habitat, one inch away from the wall. Each outer part of the cup was textured using sandpaper, as bed bugs cannot climb smooth surfaces. A paper towel was used to line the floor of the testing arena habitat. The top, removed portion of one of the solo cups was placed mouth side down in the center of the arena. In one of the cups, a cottonball was placed and treated with 100 microliters of compound or compound combination solution [comprising a total of 100 mg of compound(s).] 10 bed bugs were placed within the center cut off cup top and the testing arena habitat was covered and placed within a dark, climate controlled room overnight. The next day, the number of bed bugs that crawled into the baited cup were recorded and the % attractancy was calculated as the percentage of bugs that crawled into the baited cup as compared to the total number of bed bugs. In the Table, “Att” refers to attractancy and “Cmpd” refers to compound.

cpA neurons [3] = experiment: extracellular single-sensillum electrophysiology: inhibition of CO2-responsive (cpA) neuronal activity; details: for Class: Table 10, single compounds, percent reduction in cpA activity compared to baseline; for Class (inhibitor class of the individual component): Inh = inhibitor
[4] = 0.25% compound, 24 hour exposure, dead larvae / total larvae
[5] = 100 ppm compound, 24 hour exposure, dead larvae / total larvae
[6] = Table 13, single component alone
[7] = Table 16, single component alone

CC(C)CCOC=O [OLI0098, isoamyl formate]
Class A (beta activator, individual component) (cpB and cpC neurons): Beta
beta activator (stimulates cpB and cpC neuronal activity) (cpB and cpC neurons): beta activators

C/C=C/C(=O)OC [OLI0026, methyl crotonate]
% Rep (bed bug repellency) [1]: 38%
pest or weed control at 0.25 % (larvae; [4]): 87.5%
pest or weed control at 100 ppm (larvae; [5]): 0%
Class (cpA neurons [2]): Moderate Activator (Moderate activators yield an increase in neuronal activity that is between 40 and 60 spk/sec over baseline neuronal activity)
Comp B Class (cpA neurons [2]): Mod
Class B (activator class of the individual component) (cpA neurons [2]; Table 15, single component alone, Mod Actv): Mod
mortality at 200 µg/mL (female mosquitoes): 0%
mortality at 2000 µg/mL (female mosquitoes): 0%
% Att (bed bug attractancy) (bed bugs): 20%

CCCCC(=O)OCc1ccco1 [OLI0074, furfurylpentanoate]
% Rep (bed bug repellency) [1]: 100%
Class (cpA neurons [3]): Moderate Inhibitor (moderate inhibitors (reducing activity by 40-60%))
Class (inhibitor class of the individual component) (cpA neurons [3]; [6]): Mod
Class (inhibitor class of the individual component) (cpA neurons [3]; [7]): Mod
pest or weed control at 0.25 % (larvae; [4]): 100%
pest or weed control at 100 ppm (larvae; [5]): 0%
Class (beta activator, individual component) (cpB and cpC neurons; [7]): Beta
beta activator (stimulates cpB and cpC neuronal activity) (cpB and cpC neurons): beta activator
mortality at 200 µg/mL (female mosquitoes): 0%
mortality at 2000 µg/mL (female mosquitoes): 0%

COc1nccnc1C [OLI0070, 2-methoxy-3-methylpyrazine]
Class (cpA neurons [3]): Strong Inhibitor (strong inhibitors (reducing activity >60%))
pest or weed control at 0.25 % (larvae; [4]): 100%
pest or weed control at 100 ppm (larvae; [5]): 0%
mortality at 200 µg/mL (female mosquitoes): 0%
mortality at 2000 µg/mL (female mosquitoes): 0%
% Att (bed bug attractancy) (bed bugs): 10%

CC/C=C\CCOC=O [OLI0096, cis-3-hexenyl formate]
% Rep (bed bug repellency) [1]: 6%
pest or weed control at 0.25 % (larvae; [4]): 30%
pest or weed control at 100 ppm (larvae; [5]): 0%
Class A (beta activator, individual component) (cpB and cpC neurons): Beta
beta activator (stimulates cpB and cpC neuronal activity) (cpB and cpC neurons): beta activators
mortality at 200 µg/mL (female mosquitoes): 0%
mortality at 2000 µg/mL (female mosquitoes): 0%

CC/C=C/CC(=O)OC [OLI0100, methyl (E)-hex-3-enoate]
% Rep (bed bug repellency) [1]: 17%
pest or weed control at 0.25 % (larvae; [4]): 100%
pest or weed control at 100 ppm (larvae; [5]): 0%
Class (beta activator, individual component) (cpB and cpC neurons; [6]): Beta
Class A (beta activator, individual component) (cpB and cpC neurons): Beta
Class (beta activator, individual component) (cpB and cpC neurons; [7]): Beta
beta activator (stimulates cpB and cpC neuronal activity) (cpB and cpC neurons): beta activators
Comp B Class (cpA neurons [2]): Beta
mortality at 200 µg/mL (female mosquitoes): 0%
mortality at 2000 µg/mL (female mosquitoes): 0%

furfurylpentenoate [OLI0088]
Class (cpA neurons [3]): Mild Inhibitor (mild inhibitors (reducing activity by 20-40%))
Class (inhibitor class of the individual component) (cpA neurons [3]; [7]): Mod
Class (beta activator, individual component) (cpB and cpC neurons; [7]): Beta

CC/C=C\CCCCO [OLI0084, cis-5-octen-1-ol]
% Rep (bed bug repellency) [1]: 82%
Class (cpA neurons [3]): Mild Inhibitor (mild inhibitors (reducing activity by 20-40%))
Class (inhibitor class of the individual component) (cpA neurons [3]; [6]): Mild
Class (inhibitor class of the individual component) (cpA neurons [3]; [7]): Mild
pest or weed control at 0.25 % (larvae; [4]): 100%
pest or weed control at 100 ppm (larvae; [5]): 0%
Class (beta activator, individual component) (cpB and cpC neurons; [7]): Beta
beta activator (stimulates cpB and cpC neuronal activity) (cpB and cpC neurons): beta activator
mortality at 200 µg/mL (female mosquitoes): 0%
mortality at 2000 µg/mL (female mosquitoes): 95%

C/C=C(\C)C(=O)OC(CC)CCCCC (stereo not drawn) [OLI0079, 1-ethylhexyl tiglate]
% Rep (bed bug repellency) [1]: 49%
Class (cpA neurons [3]): Mild Inhibitor (mild inhibitors (reducing activity by 20-40%))
inhibitor class of single compound (cpA neurons [3]; single compound): mild cpA inhibitors
pest or weed control at 0.25 % (larvae; [4]): 100%
pest or weed control at 100 ppm (larvae; [5]): 0%
beta activator (stimulates cpB and cpC neuronal activity) (cpB and cpC neurons): beta activators
mortality at 200 µg/mL (female mosquitoes): 0%
mortality at 2000 µg/mL (female mosquitoes): 15%

CCCOC=O [OLI0063, propyl formate]
pest or weed control at 100 ppm (larvae; 24 h): 0%
pest or weed control at 0.25 % (larvae; 24 h): 0%
Class (cpA neurons [2]): Mild Activator (mild activators yield an increase in neuronal activity that is between 20 and 40 spk/sec over baseline neuronal activity)
Comp B Class (cpA neurons [2]): Mild
mortality at 200 µg/mL (female mosquitoes): 0%
mortality at 2000 µg/mL (female mosquitoes): 0%
% Att (bed bug attractancy) (bed bugs): 30%
